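Growth conditions: 96-well plates. Treatment: test compound, 48 hours, 5 concentrations. Analysis: linear interpolation between bracketing concentrations; unreached endpoints set to highest concentration. GI50 marks 50% less growth.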 Active and inactive are the calls of the source. Rule as the data show it: active = GI50 up to about 1.1 µM and inactive = higher.
Tests used:
Assay in all cases: inhibition of tumour cell growth, NCI panel, 48 h
[1] = test system: COLO 205
[2] = test system: NCI-H522
[3] = test system: SN12C
[4] = test system: 786-0
[5] = test system: OVCAR-5
[6] = test system: NCI-H226
[7] = test system: U-251
[8] = test system: SK-MEL-5
[9] = test system: IGROV-1
[10] = test system: HOP-62
[11] = test system: SNB-19
[12] = test system: SK-OV-3
[13] = test system: UACC-62
[14] = test system: A498
[15] = test system: SK-MEL-28
[16] = test system: MOLT-4
[17] = test system: RPMI-8226

SMILES | GI50 [1] | GI50 [2] | GI50 [3] | GI50 [4] | GI50 [5] | GI50 [6] | GI50 [7] | GI50 [8] | GI50 [9] | GI50 [10] | GI50 [11] | GI50 [12] | GI50 [13] | GI50 [14] | GI50 [15] | GI50 [16] | GI50 [17]
CCCCCCCCCCCCCP(=O)(O)O | > 100 µM (inactive) | > 100 µM (inactive) | > 100 µM (inactive) | > 100 µM (inactive) | > 100 µM (inactive) | > 100 µM (inactive) | 45.2 µM (inactive) | > 100 µM (inactive) | > 100 µM (inactive) | > 100 µM (inactive) | 67.1 µM (inactive) | > 100 µM (inactive) | > 100 µM (inactive) | > 100 µM (inactive) | > 100 µM (inactive) | – | –
N#CC(C(=N/NC(N)=S)/C(=N/NC(N)=S)C(C#N)c1ccc(Cl)cc1)c1ccc(Cl)cc1 (stereo not drawn) | > 100 µM (inactive) | > 100 µM (inactive) | > 100 µM (inactive) | > 100 µM (inactive) | > 100 µM (inactive) | > 100 µM (inactive) | > 100 µM (inactive) | 78.2 µM (inactive) | > 100 µM (inactive) | > 100 µM (inactive) | > 100 µM (inactive) | > 100 µM (inactive) | 59.6 µM (inactive) | > 100 µM (inactive) | 81.3 µM (inactive) | 22.7 µM (inactive) | –
CCOC(=O)c1cc(=O)n(C)c(=O)n1C | > 100 µM (inactive) | > 100 µM (inactive) | > 100 µM (inactive) | > 100 µM (inactive) | > 100 µM (inactive) | > 100 µM (inactive) | > 100 µM (inactive) | > 100 µM (inactive) | > 100 µM (inactive) | > 100 µM (inactive) | > 100 µM (inactive) | > 100 µM (inactive) | > 100 µM (inactive) | > 100 µM (inactive) | > 100 µM (inactive) | > 100 µM (inactive) | –
COC1=C(C(=O)OC(C)(C)C)C23CCCCC2(C(C(=O)OC(C)(C)C)=C(OC)C3C(=O)OC(C)(C)C)C1C(=O)OC(C)(C)C (stereo not drawn) | 10.4 µM (inactive) | 11.6 µM (inactive) | 38.2 µM (inactive) | > 100 µM (inactive) | > 100 µM (inactive) | 42.7 µM (inactive) | 49.9 µM (inactive) | 12.4 µM (inactive) | 49.2 µM (inactive) | > 100 µM (inactive) | > 100 µM (inactive) | > 100 µM (inactive) | 54.8 µM (inactive) | > 100 µM (inactive) | – | 6.46 µM (inactive) | 8.47 µM (inactive)
O=C1OCC2C1C1c3ccccc3C(O)c3ccccc3C21 (stereo not drawn) | > 100 µM (inactive) | – | > 100 µM (inactive) | > 100 µM (inactive) | > 100 µM (inactive) | > 100 µM (inactive) | > 100 µM (inactive) | > 100 µM (inactive) | > 100 µM (inactive) | > 100 µM (inactive) | – | > 100 µM (inactive) | > 100 µM (inactive) | > 100 µM (inactive) | > 100 µM (inactive) | > 100 µM (inactive) | > 100 µM (inactive)
CNC(=S)NC(=S)N(C)C | – | 0.678 µM (active) | > 100 µM (inactive) | > 100 µM (inactive) | – | > 100 µM (inactive) | > 100 µM (inactive) | – | > 100 µM (inactive) | > 100 µM (inactive) | > 100 µM (inactive) | > 100 µM (inactive) | – | > 100 µM (inactive) | 6.32 µM (inactive) | 3.61 µM (inactive) | 1.67 µM (inactive)
CCC(/C(=N\Nc1c(Cl)cc(Cl)cc1Cl)c1ccccc1)n1ccnc1C (stereo not drawn) | 11.6 µM (inactive) | 4.55 µM (inactive) | 11.9 µM (inactive) | 11.7 µM (inactive) | 9.04 µM (inactive) | 15.2 µM (inactive) | 12.8 µM (inactive) | 7.91 µM (inactive) | 11 µM (inactive) | – | 14.4 µM (inactive) | 18.4 µM (inactive) | 17.5 µM (inactive) | 14.2 µM (inactive) | 14.7 µM (inactive) | 5.41 µM (inactive) | 3.99 µM (inactive)
COC(=O)[C@]1(C)CCC[C@]2(C)C3CC4OOC3(C=C4C(C)(C)O)CCC21 (stereo partly drawn) | 69.8 µM (inactive) | 20.2 µM (inactive) | > 100 µM (inactive) | 30.1 µM (inactive) | > 100 µM (inactive) | 31.1 µM (inactive) | > 100 µM (inactive) | 34.6 µM (inactive) | 72.4 µM (inactive) | > 100 µM (inactive) | > 100 µM (inactive) | 76.7 µM (inactive) | 29.2 µM (inactive) | 24.4 µM (inactive) | – | 22.2 µM (inactive) | 16.7 µM (inactive)

Reference: ChEMBL document CHEMBL1201862, “PubChem BioAssay data set” (2004)
